From publication PMC9862597, “Anti-Colorectal Cancer Effects of a Novel Camptothecin Derivative PCC0208037 In Vitro and In Vivo” (Pharmaceuticals, 2022) come the findings set out here.

For one data set, the system named is HCT116 cells. Kind of data set: MTT cell viability assay, HCT116. Type of data set: cell-based. The note with it: Homo sapiens, HCT-116, 72 h. On the procedure:
Cell viability was assessed using the MTT assay, as previously reported. Briefly, colorectal cancer cells (LS180, HCT116, CT-26, and HT-29 cells) were plated onto 96-well plates at 3000 cells per well and incubated overnight. […] Control cells were treated with DMSO at a final concentration of 0.1%. Cells were cultured with the compounds or medium for 72 h. The cells were then treated with MTT. The medium was then decanted, and DMSO was added and shaken until the color reaction was complete. The […] were read using a Molecular Devices SpectraMax M5 (San Jose, CA, USA) at OD570 nm. The half maximal inhibitory concentration (IC50) was calculated.
Background: Tetrazolium assays rely on reduction of a dye to a coloured formazan, in cell work by metabolically active cells.

Another data set relates to LS180 cells. Description: Flow cytometry cell cycle and apoptosis assay. It is filed as cell-based. The settings on record: LS180, 24, 48 and 72 h. Here is the method:
Cell cycle analysis and an Apoptosis Assessment were performed using flow cytometry. LS180 cells were seeded in 6-well plates at a density of 1 × 10^5 cells per well for 12 h, and then different concentrations of PCC0208037 were added for 24, 48, and 72 h, respectively. Cells were stained with PI- or PI/FITC-labeled annexin, and the effects of PCC0208037 on cell cycle progression and apoptosis were analyzed by flow cytometry.
Figure 5 PCC0208037 induced G2/M phase arrest and apoptosis in LS180 cells. (A) Cells were treated with multiple concentrations of PCC0208037 for 24, 48, and 72 h and then analyzed by flow cytometry with PI staining. (B). Cells were treated with multiple concentrations of PCC0208037 for 24, 48, and 72 h and then analyzed by flow cytometry with annexin VeFITC staining. The data were expressed as the mean ± SD (n = 3). * p < 0.05 as compared to the control.

A further data set deals with LS180 and HCT116 cells. Description: Western blot of DNA damage and apoptosis related proteins. It is filed as cell-based. The settings on record: 0.01 and 0.03 μM, compared to control. Here is the method: Effects of PCC0208037 on the protein expression levels were examined by Western blotting, as described previously. Briefly, 2 × 10^6 LS180 and HCT116 cells were seeded in 10-cm dishes to adhere overnight. […] At the desired time points, cells were washed twice with a cold PBS. Then, cells were lysed in the RIPA buffer for 30 min on ice. The RIPA buffer contains protease inhibitors and phosphatase inhibitors. After sonication, the samples were centrifuged at 12,000 rpm, and then the supernatants were harvested and assayed for the protein concentration. Equal amounts of protein (30 μg) were separated with a polyacrylamide gel and transferred to a PVDF membrane. The membranes were blocked for 2 h (in 5% skim milk) and then incubated with primary antibodies overnight at 4 °C: ATM p-ATM, ATR, p-ATR, Chk1, p-Chk1, Chk2, p-Chk2, P53, p-P53, Bcl2, gamma H2AX, Bax, Puma, β-actin, and GAPDH. Then, the membranes were incubated with secondary antibodies for 2 h at room temperature. All these antibodies were diluted to a 1:1000 concentration in use. The immunoblots were visualized by a BeyoECL Plus enhanced chemiluminescence system.
Figure 6 Effects of PCC0208037 on molecules related to DNA damage in CRC cells. […]

Data set [1] in a line: Pharmacokinetic study, single intravenous dose. On the procedure: Blood samples were collected at 0.083 h, 0.25 h, 0.5 h, 1 h, 2 h, 4 h, 8 h, and 12 h after administration. Plasma was prepared after centrifugation at 6000× g for 5 min and then stored at −20 °C for further analysis.
A short description of data set [2]: PCC0208037- and CPT-11-induced toxicity in mice. The note with it: 50 mg/kg/day i.p. for four days.
The mark [3] stands for this setting: BALB/c, mouse, in vivo, iv, 10.65 mg/kg.
Where [4] appears, read: PCC0208037 in plasma, 10.65 mg/kg PCC0208037 i.v., n = 3.

For orientation: IC50 means the midpoint of a concentration-inhibition curve. Read a high IC50 as lower potency. As usually defined, the Cmax is the maximum level reached in the sampled fluid or tissue. As a reminder, the Tmax is the time at which the peak concentration occurs. For orientation: half-life means how long it takes for the measured level to halve. Read a low half-life as fast loss. In the data set on HCT116 cells, `CCc1c2c(nc3ccc(O)cc13)-c1cc3c(c(=O)n1C2)COC(=O)[C@@]3(CC)OC(=O)Nc1nc(=O)n([C@@H]2O[C@H](C)[C@@H](O)[C@H]2O)cc1F` [PCC0208037] yielded an IC50 of 2.9 ± 0.61 µM. Further, in the data set on LS180 cells (FITC annexin V staining), the “percentage of apoptotic cells” value is given as “significantly increased the percentage of apoptotic cells”. For the same compound, in the data set on LS180 cells (PI staining), the “ratio of cells in the G2/M phase” value is listed as “significantly increased the ratio of the cells in the G2/M phase”. Also, the “protein levels of molecules associated with DNA damage” value in the data set on LS180 and HCT116 cells (8 h) is “significantly up-regulated the protein levels of γ-H2AX, p-ATM, p-Chk1, p-Chk2, p-P53, and P53”. In addition, in the data set with LS180 and HCT116 cells (24 h), the “protein levels of molecules associated with apoptosis” value is “significantly up-regulated the protein levels of BAX and PUMA and down-regulated the protein level of Bcl-2”. In data set [1] (setting [3]), the Cmax amounted to 137 µg/mL, the Tmax was 11.4 ± 4.2 min and the half-life was 70.2 ± 0.9 min. Further, in data set [1] (setting [4]), the AUCinf is listed as 68,388.4 ± 17,991.1 H * ng/mL and the AUClast is on record as 68,292.5 ± 18,078.2 H * ng/mL. Also, the “colorectal tissue histomorphological examination (H&E)” value in data set [2] (colon after 7 days) was “A mild reduction of goblet cells and a mild infiltration of lymphocytes”. For the same compound, in data set [2] (seven-day observation), the mortality result is on record as “No animal died”; the “recovery of body weight and food intake decrease” value is listed as “began to recover on the 6th day onwards”.
